Laboratory results as given in ChEMBL document CHEMBL4680302, “Biologic-like In Vivo Efficacy with Small Molecule Inhibitors of TNFα Identified Using Scaffold Hopping and Structure-Based Drug Design Approaches” (J Med Chem, 2020).

Columns and labels:
[1] = biological target: Tumor necrosis factor (Homo sapiens, UniProt P01375); assay: Inhibition of exogenous human TNFalpha in HEK-Blue-CD40L cells assessed as reduction in TNF-alpha-induced NFkappaB activation incubated for 18 hrs by quanti-blue based SEAP assay; assay type: cell-based
Tumor necrosis factor, sequence (P01375 whole entry): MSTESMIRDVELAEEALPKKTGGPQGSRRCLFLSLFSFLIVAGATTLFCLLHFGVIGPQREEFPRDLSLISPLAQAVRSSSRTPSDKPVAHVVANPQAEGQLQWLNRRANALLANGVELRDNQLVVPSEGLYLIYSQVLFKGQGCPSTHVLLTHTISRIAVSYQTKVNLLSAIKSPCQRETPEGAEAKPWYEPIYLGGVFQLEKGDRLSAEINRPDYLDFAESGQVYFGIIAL

[2] = Metabolic stability in mouse liver microsomes assessed as parent compound remaining after 10 mins; assay type: ADME, Microsome; settings: read-out: Stabilty
[3] = biological target: Cytochrome P450 2C9 (Homo sapiens, UniProt P11712); assay: Inhibition of recombinant CYP2C9 (unknown origin); assay type: ADME
Cytochrome P450 2C9, sequence (P11712 whole entry): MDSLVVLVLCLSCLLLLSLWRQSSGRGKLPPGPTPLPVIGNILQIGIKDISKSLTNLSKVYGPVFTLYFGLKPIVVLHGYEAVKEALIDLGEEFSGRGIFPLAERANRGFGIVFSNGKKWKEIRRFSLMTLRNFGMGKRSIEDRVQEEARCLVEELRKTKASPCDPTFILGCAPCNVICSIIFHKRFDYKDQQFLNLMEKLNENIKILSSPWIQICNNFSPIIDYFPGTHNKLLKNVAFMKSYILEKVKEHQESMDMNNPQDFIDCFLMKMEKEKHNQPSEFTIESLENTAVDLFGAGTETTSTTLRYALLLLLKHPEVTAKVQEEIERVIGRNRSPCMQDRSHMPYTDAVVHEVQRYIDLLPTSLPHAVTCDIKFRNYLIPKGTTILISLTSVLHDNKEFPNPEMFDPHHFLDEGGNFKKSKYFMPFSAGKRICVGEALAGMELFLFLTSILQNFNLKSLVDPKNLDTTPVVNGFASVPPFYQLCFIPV

[4] = biological target: Cytochrome P450 2C19 (Homo sapiens, UniProt P33261); assay: Inhibition of recombinant CYP2C19 (unknown origin); assay type: ADME
Cytochrome P450 2C19, sequence (P33261 whole entry): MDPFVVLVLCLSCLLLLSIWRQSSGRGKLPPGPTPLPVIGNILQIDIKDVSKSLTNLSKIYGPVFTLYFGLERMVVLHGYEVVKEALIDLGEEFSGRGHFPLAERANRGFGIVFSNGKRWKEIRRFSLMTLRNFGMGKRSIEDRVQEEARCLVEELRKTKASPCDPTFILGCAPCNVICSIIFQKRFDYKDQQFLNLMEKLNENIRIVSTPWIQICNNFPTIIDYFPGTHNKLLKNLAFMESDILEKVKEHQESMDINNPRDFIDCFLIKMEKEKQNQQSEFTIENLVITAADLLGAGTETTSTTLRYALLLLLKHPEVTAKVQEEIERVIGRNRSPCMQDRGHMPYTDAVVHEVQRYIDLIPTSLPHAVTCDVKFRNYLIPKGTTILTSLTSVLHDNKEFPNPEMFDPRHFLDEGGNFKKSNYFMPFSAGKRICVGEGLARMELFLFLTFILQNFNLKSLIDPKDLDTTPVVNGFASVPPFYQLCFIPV

[5] = Metabolic stability in rat liver microsomes assessed as half-life; assay type: ADME, Microsome
[6] = biological target: T1, Cytochrome P450 1A2 (Homo sapiens, UniProt P05177); assay: Inhibition of recombinant CYP1A2 (unknown origin); assay type: ADME
T1 sequence (P05177 whole entry): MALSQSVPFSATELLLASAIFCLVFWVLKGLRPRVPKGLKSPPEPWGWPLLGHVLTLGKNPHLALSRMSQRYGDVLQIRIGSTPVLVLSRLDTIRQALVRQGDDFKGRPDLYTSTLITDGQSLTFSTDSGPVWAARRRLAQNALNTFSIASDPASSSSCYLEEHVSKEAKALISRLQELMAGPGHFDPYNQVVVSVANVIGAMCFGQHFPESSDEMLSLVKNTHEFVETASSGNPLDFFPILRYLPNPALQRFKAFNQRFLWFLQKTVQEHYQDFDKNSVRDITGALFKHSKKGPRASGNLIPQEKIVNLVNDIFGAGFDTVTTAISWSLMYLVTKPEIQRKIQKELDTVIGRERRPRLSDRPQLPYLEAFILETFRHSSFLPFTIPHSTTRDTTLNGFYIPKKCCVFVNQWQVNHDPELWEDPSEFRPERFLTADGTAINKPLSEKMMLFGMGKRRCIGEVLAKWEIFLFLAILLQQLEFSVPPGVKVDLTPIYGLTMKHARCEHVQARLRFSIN

[7] = biological target: Cytochrome P450 3A4 (Homo sapiens, UniProt P08684); assay: Inhibition of recombinant CYP3A4 (unknown origin) in presence of BFC as substrate; assay type: ADME
Cytochrome P450 3A4, sequence (P08684 whole entry): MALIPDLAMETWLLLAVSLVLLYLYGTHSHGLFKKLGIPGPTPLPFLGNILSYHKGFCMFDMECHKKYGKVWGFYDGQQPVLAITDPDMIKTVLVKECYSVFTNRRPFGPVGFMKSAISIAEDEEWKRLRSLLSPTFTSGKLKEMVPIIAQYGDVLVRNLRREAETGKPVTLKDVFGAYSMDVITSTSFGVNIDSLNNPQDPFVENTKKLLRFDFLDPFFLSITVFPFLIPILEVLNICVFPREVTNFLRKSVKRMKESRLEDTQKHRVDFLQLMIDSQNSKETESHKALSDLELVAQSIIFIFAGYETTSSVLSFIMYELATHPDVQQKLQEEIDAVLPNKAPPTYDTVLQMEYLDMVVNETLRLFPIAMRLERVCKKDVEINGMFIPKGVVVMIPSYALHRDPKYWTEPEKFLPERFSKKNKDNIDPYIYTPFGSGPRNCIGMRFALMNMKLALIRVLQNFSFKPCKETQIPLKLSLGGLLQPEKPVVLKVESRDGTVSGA

[8] = Cmax in mouse at 2 mg/kg, po; assay type: ADME, organism-based; parameters: route oral, dose 2 mg/kg; settings: in vivo
[9] = Clearance in mouse at 0.5 mg/kg, iv; assay type: ADME, organism-based; settings: in vivo
[10] = Volume of distribution at steady state in mouse at 0.5 mg/kg, iv; assay type: ADME, organism-based; settings: in vivo, read-out: Vdss
[11] = tested on: Mus musculus; assay: Antiarthritic activity against anticollagen antibody-induced arthritis BALB/c mouse model assessed as reduction in paw inflammation administered orally twice a day followed by LPS stimulation after 6 hrs measured until day 12; assay type: functional, organism-based; settings: dose 2-10 mg/kg, time 12.0 day
[12] = tested on: Mus musculus; assay: Antiarthritic activity against anticollagen antibody-induced arthritis BALB/c mouse model assessed as reduction in swelling of digits administered orally twice a day followed by LPS stimulation after 6 hrs measured until day 12; assay type: functional, organism-based; settings: dose 2-10 mg/kg, time 12.0 day
[13] = tested on: Mus musculus; assay: Antiarthritic activity against anticollagen antibody-induced arthritis BALB/c mouse model assessed as reduction in LPS-induced cells expressing B220 receptor administered orally twice daily followed by LPS stimulation after 6 hrs measured on day 12 by RT-PCR analysis; assay type: functional, organism-based; settings: dose 2-10 mg/kg, time 12.0 day
[14] = Terminal drug exposure in anticollagen antibody-induced arthritis BALB/c mouse model at 10 mg/kg, po BID followed by LPS stimulation after 6 hrs measured on day 12; assay type: ADME, organism-based; settings: in vivo, time 12 day, read-out: Drug uptake
[15] = Terminal drug exposure in anticollagen antibody-induced arthritis BALB/c mouse model at 2 mg/kg, po BID followed by LPS stimulation after 6 hrs measured on day 12; assay type: ADME, organism-based; settings: in vivo, time 12 day, read-out: Drug uptake
[16] = Selectivity ratio of drug exposure in TNFalpha-induced C57BL/6J mouse at 5 mg/kg, po at 3 hrs post dose to IC50 for inhibition of human TNFalpha expressed in HEK-Blue-CD40L cells assessed as inhibition of NFkappaB activation by quanti-blue based SEAP assay
[17] = biological target: Voltage-gated inwardly rectifying potassium channel KCNH2 (Homo sapiens, UniProt Q12809); assay: Inhibition of human ERG by patch clamp assay
Voltage-gated inwardly rectifying potassium channel KCNH2, sequence (Q12809 whole entry): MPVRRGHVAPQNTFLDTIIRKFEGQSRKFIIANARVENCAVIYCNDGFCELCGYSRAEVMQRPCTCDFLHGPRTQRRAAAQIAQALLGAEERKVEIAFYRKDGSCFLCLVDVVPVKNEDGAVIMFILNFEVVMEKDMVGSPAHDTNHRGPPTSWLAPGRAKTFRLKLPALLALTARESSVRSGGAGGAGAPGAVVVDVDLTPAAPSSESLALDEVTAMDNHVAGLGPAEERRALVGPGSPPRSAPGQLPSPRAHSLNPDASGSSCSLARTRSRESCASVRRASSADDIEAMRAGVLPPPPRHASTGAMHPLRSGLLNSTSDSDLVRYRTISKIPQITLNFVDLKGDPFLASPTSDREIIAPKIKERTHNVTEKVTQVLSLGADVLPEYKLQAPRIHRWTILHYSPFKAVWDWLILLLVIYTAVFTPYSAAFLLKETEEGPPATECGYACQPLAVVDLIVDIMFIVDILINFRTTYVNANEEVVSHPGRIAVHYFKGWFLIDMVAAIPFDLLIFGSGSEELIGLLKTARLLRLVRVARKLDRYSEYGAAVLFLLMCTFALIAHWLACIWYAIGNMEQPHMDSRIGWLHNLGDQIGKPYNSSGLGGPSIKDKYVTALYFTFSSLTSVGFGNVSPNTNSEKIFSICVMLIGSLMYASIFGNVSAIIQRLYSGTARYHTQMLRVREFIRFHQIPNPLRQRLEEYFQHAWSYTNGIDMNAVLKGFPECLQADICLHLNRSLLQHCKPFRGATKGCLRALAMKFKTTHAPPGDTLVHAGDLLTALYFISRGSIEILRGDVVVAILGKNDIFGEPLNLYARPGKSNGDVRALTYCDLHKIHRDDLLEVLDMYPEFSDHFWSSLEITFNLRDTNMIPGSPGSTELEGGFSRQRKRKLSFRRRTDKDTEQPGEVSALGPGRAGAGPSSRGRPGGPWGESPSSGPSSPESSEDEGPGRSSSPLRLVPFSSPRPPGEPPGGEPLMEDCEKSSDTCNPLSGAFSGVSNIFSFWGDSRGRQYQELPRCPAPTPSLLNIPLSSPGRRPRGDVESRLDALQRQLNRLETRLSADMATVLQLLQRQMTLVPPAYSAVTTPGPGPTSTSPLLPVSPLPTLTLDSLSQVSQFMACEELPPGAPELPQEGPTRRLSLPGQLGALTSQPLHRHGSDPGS

[18] = biological target: T2, CD40 ligand (Homo sapiens, UniProt P29965); assay: Inhibition of CD40L (unknown origin)
T2 sequence (P29965 whole entry): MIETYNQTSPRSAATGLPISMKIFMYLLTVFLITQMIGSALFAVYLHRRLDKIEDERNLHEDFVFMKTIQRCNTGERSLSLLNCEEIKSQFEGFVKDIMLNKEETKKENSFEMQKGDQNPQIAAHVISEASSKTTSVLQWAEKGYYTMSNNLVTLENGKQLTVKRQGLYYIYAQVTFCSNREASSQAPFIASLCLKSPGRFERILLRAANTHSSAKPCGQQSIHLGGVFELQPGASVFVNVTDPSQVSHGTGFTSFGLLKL

[19] = biological target: T3, Tumor necrosis factor ligand superfamily member 6 (Homo sapiens, UniProt P48023); assay: Inhibition of FasL (unknown origin)
T3 sequence (P48023 whole entry): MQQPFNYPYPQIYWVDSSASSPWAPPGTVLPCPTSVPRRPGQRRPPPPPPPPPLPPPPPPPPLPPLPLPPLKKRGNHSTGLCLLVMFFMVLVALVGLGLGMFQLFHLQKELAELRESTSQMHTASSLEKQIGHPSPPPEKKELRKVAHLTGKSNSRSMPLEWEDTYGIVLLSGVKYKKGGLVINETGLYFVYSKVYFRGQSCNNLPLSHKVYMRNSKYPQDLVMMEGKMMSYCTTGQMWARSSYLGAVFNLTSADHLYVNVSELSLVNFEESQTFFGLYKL

[20] = biological target: T4, Tumor necrosis factor receptor superfamily member 1A (Homo sapiens) (UniProt P19438); assay: Binding affinity to TNFR1 (unknown origin) assessed as sedimentation coefficient (S) value at 25 uM in presence of human TNFalpha by ultracentrifugation analysis (reference value: 2.2)
T4 sequence (whole entry): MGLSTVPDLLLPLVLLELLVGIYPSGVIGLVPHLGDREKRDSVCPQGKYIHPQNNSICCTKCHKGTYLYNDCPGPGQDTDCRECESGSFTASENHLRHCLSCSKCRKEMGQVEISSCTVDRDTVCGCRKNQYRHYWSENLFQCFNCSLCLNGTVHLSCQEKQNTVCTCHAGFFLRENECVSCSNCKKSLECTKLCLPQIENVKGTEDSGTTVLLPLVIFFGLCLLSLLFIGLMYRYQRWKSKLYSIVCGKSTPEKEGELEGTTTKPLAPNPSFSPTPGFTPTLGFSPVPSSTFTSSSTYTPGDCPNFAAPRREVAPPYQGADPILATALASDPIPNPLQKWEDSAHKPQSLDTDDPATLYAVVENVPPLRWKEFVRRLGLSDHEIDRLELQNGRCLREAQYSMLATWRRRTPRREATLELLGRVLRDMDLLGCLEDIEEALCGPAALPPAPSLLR

[21] = biological target: T4, Tumor necrosis factor receptor superfamily member 1A (Homo sapiens); assay: Binding affinity to TNFR1 (unknown origin) assessed as apparent molecular weight of protein at 25 uM in presence of human TNFalpha by ultracentrifugation analysis (reference value: 27 kDa)

For `Cc1nc2cc(F)c(-c3cnc(C(C)(C)O)nc3)nc2c(N[C@H](C)c2cc(C#N)ccc2F)c1Cl`, which IC50 [1] is on record?
Its IC50 is 0.027 µM.

What about the remaining at 10 min [2] of the same molecule?
The remaining at 10 min was 86%.

What about the IC50 [3] of the same molecule?
Its IC50 is 2 µM.

What about the IC50 [4] of the same molecule?
The IC50 was > 20 µM.

And the half-life [5]?
The half-life was 1.15 h.

What about the IC50 [6] of the same molecule?
The IC50 was > 20 µM.

What about the IC50 [7] of the same molecule?
The IC50 was > 20 µM.

What about the Cmax [8] of the same molecule?
The Cmax was 470 nM.

What about the clearance [9] of the same molecule?
The clearance was 6.6 mL/min/kg.

What about the Vd [10] of the same molecule?
Its Vd is 3.2 L/kg.

What about the Activity [11] of the same molecule?
The Activity was “Dose-dependent effect”.

What about the Activity [12] of the same molecule?
Its Activity is “Dose-dependent effect”.

What about the Activity [13] of the same molecule?
The Activity was “Dose-dependent effect”.

What about the concentration at 288 h [14] of the same molecule?
Its concentration at 288 h is 1130 nM.

What about the concentration at 288 h [15] of the same molecule?
Its concentration at 288 h is 340 nM.

What about the Selectivity ratio [16] of the same molecule?
The Selectivity ratio was 2.

And the IC50 [17]?
The IC50 was 5.6 µM.

And the IC50 [18]?
Its IC50 is > 10 µM.

What about the IC50 [19] of the same molecule?
The IC50 was > 10 µM.

And the Activity index [20]?
The Activity index was 2.2.

And the Activity [21]?
Its Activity is 28 kDa.
